Measured values reported in US5145954A, “Derivatives of alphaphenylacrylic acid and their use in agriculture” (Imperial Chemical Industries PLC, priority 1986, dated 1992).

How the values were obtained:
Assay type in all cases: in vivo
[1] = tested on: Tetranychus urticae (spider mites - adult); assay: insecticidal test TUa, spider mites adult, contact; details: 500 ppm, French bean leaf, duration 3
Protocol: (§1) The activity of the compound was determined using a variety of insect, mite and nematode pests. The compound was used in the form of liquid preparations containing from 100 to 500 parts per million (ppm) by weight of the compound. The preparations were made by dissolving the compound in acetone and diluting the solutions with water containing 0.1% by weight of a wetting agent sold under the trade name "SYNPERONIC" NX until the liquid preparations contained the required concentration of the product. "SYNPERONIC" is a Registered Trade Mark.
(§2) The test procedure adopted with regard to each pest was basically the same and comprised supporting a number of the pests on a medium which was usually a host plant or a foodstuff on which the pests feed, and treating either or both the pests and the medium with the preparations. The mortality of the pests was then assessed at periods usually varying from one to seven days after the treatment. […]

[2] = tested on: Tetranychus urticae (spider mites - ova); assay: insecticidal test TUe, spider mites ova, contact; details: 500 ppm, French bean leaf, duration 6
Protocol: as §1, §2

[3] = tested on: Myzus persicae; assay: insecticidal test MP, aphids, contact; details: 500 ppm, Chinese cabbage leaf, duration 3
Protocol: as §1, §2

[4] = tested on: Nilaparvata lugens; assay: insecticidal test NL, brown plant hopper nymphs, contact; details: 500 ppm, rice plant, duration 3
Protocol: as §1, §2

[5] = tested on: Musca domestica; assay: insecticidal test MD, houseflies adults, contact; details: 500 ppm, cotton wool/sugar, duration 1
Protocol: as §1, §2

[6] = tested on: Blattella germanica; assay: insecticidal test BG, cockroach nymphs, residual; details: 500 ppm, plastic pot, duration 3
Protocol: as §1, §2

[7] = tested on: Heliothis virescens; assay: insecticidal test HV, tobacco budworm larvae, residual; details: 500 ppm, cotton leaf, duration 3
Protocol: as §1, §2

[8] = tested on: Spodoptera exigua; assay: insecticidal test SP, lesser army worm larvae, residual; details: 500 ppm, cotton leaf, duration 3
Protocol: as §1, §2

[9] = tested on: Diabrotica balteata; assay: insecticidal test DB, rootworm larvae, residual; details: 500 ppm, filter paper/maize seed, duration 3
Protocol: as §1, §2

[10] = tested on: Meloidogyne incognita; assay: nematode test MI, tomato root knot eelworm larvae, semi in-vitro, residual; details: 125 ppm, duration 7
Protocol: as §1, §2

[11] = tested on: Musca domestica; assay: whole plant or invertebrate
Protocol: A sample of compound 9 was diluted in 2 mls acetone and made up to a 2000 ppm solution with 0.1% aqueous synperonic solution. The solution (1 ml) was then sprayed directly onto twenty mixed sex houseflies held in a drinking cup. Immediately after spraying the cups were inverted and left to dry. An assessment of knockdown was made when the cups were righted 15 minutes later. The flies were then provided with a 10% sucrose solution on a cotton wool pad, and held for 48 hours in a holding room conditioned at 25° C. and 65% relative humidity before a mortality assessment was made.

[12] = tested on: Puccinia recondita; assay: foliar fungal disease test on plants, Puccinia recondita (wheat); details: 100 ppm foliar spray plus root drench ca. 40 ppm a.i./dry soil; protectant
[13] = tested on: Erysiphe graminis; assay: foliar fungal disease test on plants, Erysiphe graminis (barley); details: 100 ppm foliar spray plus root drench ca. 40 ppm a.i./dry soil; inoculated 24 hours before treatment
[14] = tested on: Venturia inaequalis; assay: foliar fungal disease test on plants, Venturia inaequalis (apple); details: 100 ppm foliar spray plus root drench ca. 40 ppm a.i./dry soil; protectant
[15] = tested on: Pyricularia oryzae; details: 100 ppm foliar spray plus root drench ca. 40 ppm a.i./dry soil; protectant
[16] = tested on: Cercospora arachidicola; assay: foliar fungal disease test on plants, Cercospora arachidicola (peanut); details: 100 ppm foliar spray plus root drench ca. 40 ppm a.i./dry soil; protectant
[17] = tested on: Plasmopara viticola; assay: foliar fungal disease test on plants, Plasmopara viticola (vine); details: 100 ppm foliar spray plus root drench ca. 40 ppm a.i./dry soil; protectant
[18] = tested on: Wheat; assay: whole plant screen for plant growth regulating activity, wheat; details: 4000 ppm (4 kg/ha), after 2-6 weeks
Protocol: (§3) These compounds were tested on a whole plant screen for plant growth regulating activity against six species of plant. The plant species used in this screen are presented in Table VIII with the leaf stage at which they were sprayed.
(§4) A formulation of each chemical was applied at 4000 ppm (4 kg/ha in a 1000 1/ha field volume) using a tracksprayer and a SS8004E (Teejet) nozzle. Additional tests were done on tomatoes at 2000 and 500 ppm.
(§5) After spraying, the plants were grown in a glasshouse with 25° C. day/22° C. night temperatures. The exception to this were the temperate cereals, wheat and barley which were grown in 13°-16° C. day/11°-13° C. night temperatures. Supplementary lighting was supplied when necessary to provide an average photoperiod of 16 hours (14 hours minimum).
(§6) After 2-6 weeks in the glasshouse, depending on species and time of year, the plants were visually assessed for morphological characteristics against a control plant sprayed with a blank formulation.
Wheat WW Timmo 1-1.5 leaves

[19] = tested on: Tomato; assay: whole plant screen for plant growth regulating activity, tomato; parameters: key to greening effect, TO* / greening effect, TO^+ / apical damage, TO* / tillering or side shooting, TO* / apical damage, TO^+ / tillering or side shooting, TO^+: Greening effect; Apical damage; Tillering or side shooting; details: after 2-6 weeks
Protocol: as §3, §4, §5, §6
To- TO Ailsa 2-21/2 leaves

[20] = tested on: Maize; assay: whole plant screen for plant growth regulating activity, maize; parameters: key: Greening effect; Apical damage; Tillering or side shooting; details: 4000 ppm (4 kg/ha), after 2-6 weeks
Protocol: as §3, §4, §5, §6

[21] = tested on: Rice; assay: whole plant screen for plant growth regulating activity, rice; details: 4000 ppm (4 kg/ha), after 2-6 weeks
Protocol: as §3, §4, §5, §6
Rice RC Ishikari 2-21/2 leaves

SMILES | disease control grade, PUCCINIA RECONDITA (Wheat) [12] | disease control grade, ERYSIPHE GRAMINIS (Barley) [13] | disease control grade, VENTURIA INAEQUALIS (Apple) [14] | disease control grade, P[…] (Rice) [15] | disease control grade, CERCOSPORA ARACHIDICOLA (Peanut) [16] | disease control grade, PLASMOPARA VITICOLA (Vine) [17] | greening effect, TO^+ ([19]; 500 ppm) | retardation, TO^+ ([19]; 500 ppm) | retardation, TO* ([19]; 2000 ppm) | also measured
COC(=O)/C(=C/SC)c1ccccc1/C=C/c1ccccc1 [Compound 9 of Table I] |  |  |  |  |  |  |  |  |  | grading of mortality, TUA [1]: 0 (less than 50% mortality); grading of mortality, TUE [2]: 0 (less than 50% mortality); grading of mortality, MP [3]: 0 (less than 50% mortality); grading of mortality, NL [4]: 0 (less than 50% mortality); grading of mortality, MD [5]: 5 (50-79% mortality); grading of mortality, BG [6]: 0 (less than 50% mortality); grading of mortality, HV [7]: 0 (less than 50% mortality); grading of mortality, SP [8]: 0 (less than 50% mortality); grading of mortality, DB [9]: 5 (50-79% mortality); grading of root knot reduction, MI* [10]: 9 (70-100% root knot reduction as compared to an untreated plant for Meloidogyne incognita); knockdown ([11]; 1 ml of 2000 ppm solution sprayed on twenty houseflies, assessed 15 minutes later): 88%; mortality at 2000 ppm ([11]; Musca domestica, topical, 48 h, read-out: kill): 15%
COC(=O)/C(=C\SC)c1ccccc1/C=C/c1ccccc1 [10 of Table I] | 2 (6-25% of disease on untreated plants) | 0 (60-100% of disease on untreated plants) | 4 | 3 (trace - 5% of disease on untreated plants) | 4 | 4 |  |  |  | 
COC(=O)/C(=C/SC)c1ccccc1Oc1ccccc1 [1 of Table II] | 4 | 3 (trace - 5% of disease on untreated plants) | 4 | 2 (6-25% of disease on untreated plants) | 0 (60-100% of disease on untreated plants) | 4 | G | 1 (10-30%) | 1 (10-30%) | retardation, WW [18]: 1 (10-30%)
COC(=O)/C(=C/SC)c1ccccc1CCc1ccc(F)cc1 [96 of Table I] | 0 (60-100% of disease on untreated plants) | 0 (60-100% of disease on untreated plants) | 3 (trace - 5% of disease on untreated plants) | 0 (60-100% of disease on untreated plants) | 0 (60-100% of disease on untreated plants) | 0 (60-100% of disease on untreated plants) | G |  | 1 (10-30%) | apical damage, MZ [20]: A; greening effect, MZ [20]: G
COC(=O)/C(=C/SC)c1ccccc1/C=C/c1ccccc1 [9 of Table I] | 3 (trace - 5% of disease on untreated plants) | 0 (60-100% of disease on untreated plants) | 4 | 4 | 1 (26-59% of disease on untreated plants) | 0 (60-100% of disease on untreated plants) | G |  |  | apical damage, TO^+ ([19]; 500 ppm): A; tillering or side shooting, TO^+ ([19]; 500 ppm): T; apical damage, TO* ([19]; 2000 ppm): A; greening effect, TO* ([19]; 2000 ppm): G; tillering or side shooting, TO* ([19]; 2000 ppm): T
COC(=O)/C(=C/SC)c1ccccc1 [1 of Table I] | 0 (60-100% of disease on untreated plants) | 0 (60-100% of disease on untreated plants) | 0 (60-100% of disease on untreated plants) | 1 (26-59% of disease on untreated plants) | 0 (60-100% of disease on untreated plants) | 0 (60-100% of disease on untreated plants) |  | 1 (10-30%) | 1 (10-30%) | retardation, RC [21]: 2 (21-60%)
COC(=O)/C(=C\SC)c1ccccc1 [2 of Table I] | 0 (60-100% of disease on untreated plants) | 0 (60-100% of disease on untreated plants) | 0 (60-100% of disease on untreated plants) | 0 (60-100% of disease on untreated plants) | 0 (60-100% of disease on untreated plants) | 1 (26-59% of disease on untreated plants) | G | 2 (21-60%) | 1 (10-30%) | retardation, RC [21]: 1 (10-30%); greening effect, TO* ([19]; 2000 ppm): G
